These results are taken from patent publication US4161538A, “Substituted phenylacetic acid derivatives and process for the preparation thereof” (Sankyo Company Limited, priority 1977, dated 1979).

Assay [1] has as its system thermally induced pain. The assay is described as follows: Analgesic activity, thermally induced pain method. In kind it is in vivo, Wistar strain rat. Conditions: for Inhibition(%) Analgesic 19 mg/kg (P.O.): rat; for inhibition in vivo at 19 mg/kg: Rattus norvegicus, po, 19 mg/kg P.O. The text has this:
[Y. Iizuka, K. Tanaka; Folia Pharmacol. Jap., 70, 697(1974)]

Assay [2] concerns carrageenin edema. The assay is described as follows: Anti-inflammatory activity, carrageenin edema method. In kind it is in vivo, Wistar strain rat. As to conditions: for inhibition in vivo at 25 mg/kg: Rattus norvegicus, po. The text has this: The carrageenin edema method was employed using Wistar strain rat. [C. A. Winter, E. A. Risley, G. W. Nuss; J. Pharmacol. Exp. Therap., 141, 369(1963)]

Counter-ions that a name gives are not always drawn.

As to `CC(C(=O)O)c1ccc(CC2CCCC2=O)cc1` (stereo not shown) [2-(4-(2-Oxocyclopentan-1-ylmethyl)phenyl)-propionic acid] [2-[4-(2-Oxocyclopentan-1-ylmethyl)phenyl]-propionic Acid], in assay [1], the “Inhibition(%) Analgesic 19 mg/kg (P.O.)” value was 95.8%.
With `CCCCC1C(=O)N(c2ccccc2)N(c2ccccc2)C1=O` [Phenylbutazone, reference compound], the inhibition in vivo (commonly how much of the control response was suppressed) at 25 mg/kg in assay [2] (25 mg/kg P.O.) is 30.6%. The “Inhibition(%) Anti-inflammatory (100 mg/kg)” value in assay [2] (rat, 100 mg/kg (P.O.), reference medicine) is reported as 57.4%. This molecule returned an inhibition in vivo at 19 mg/kg in assay [1] of 37%.
As for `CC(C(=O)O)c1ccc(CC2CCCC2=O)cc1` (stereo not shown) [2-[4-(2-Oxocyclopentan-1-ylmethyl)phenyl]-propionic Acid], at 25 mg/kg the inhibition in vivo in assay [2] (25 mg/kg P.O.) was 51.4%.
Turning to `CC(C(=O)O)c1ccc(CC2CCCC2=NO)cc1` (stereo not shown) [2-[4-(2-Hydroxyiminocyclopentan-1-ylmethyl)phenyl]propionic Acid], the inhibition in vivo at 25 mg/kg in assay [2] (25 mg/kg P.O.) is 67.4%. This molecule returned an inhibition in vivo at 19 mg/kg in assay [1] of 70%.
The corresponding values for `O=C(O)Cc1ccc(CC2CCCC2=NO)cc1` (single isomer, unassigned) [4-(2-Hydroxyiminocyclopentan-1-ylmethyl)phenylacetic Acid] are 49.7% and 54.8%.
The corresponding values for `CC(C(=O)O)c1ccc(CC2CCCCC2=NO)cc1` (stereo not shown) [2-[4-(2-Hydroxyiminocyclohexan-1-ylmethyl)phenyl]propionic Acid] are 78.2% and 53.1%.
The corresponding values for `O=C(O)Cc1ccc(CC2CCCC2=O)cc1` (stereo not shown) [4-(2-Oxocyclopentan-1-ylmethyl)phenylacetic Acid] are 65.6% and 42.5%.
For `CC(C(=O)O)c1ccc(CC2CCCC2=O)cc1` [2-(4-(2-Oxocyclopentan-1-ylmethyl)phenyl)-propionic acid I-a] [2-[4-(2-Oxocyclopentan-1-ylmethyl)phenyl]-propionic Acid L-Arginine Salt], the “Inhibition(%) Anti-inflammatory 25 mg/kg (P.O.)” value in assay [2] (rat, 25 mg/kg P.O.) stood at 69.8%. For the same molecule, in assay [1], the “Inhibition(%) Analgesic 19 mg/kg (P.O.)” value is 66.7%.
As to `CC(C(=O)O)c1ccc(CC2CCCCC2=O)cc1` (stereo not shown) [2-[4-(2-Oxocyclohexan-1-ylmethyl)phenyl]-propionic Acid], the inhibition in vivo at 25 mg/kg in assay [2] (25 mg/kg P.O.) is 79.9%. In assay [1], this molecule returned an inhibition in vivo at 19 mg/kg of 63.3%.
The corresponding values for `O=C(O)Cc1ccc(CC2CCCCC2=O)cc1` (stereo not shown) [4-(2-Oxocyclohexan-1-ylmethyl)phenylacetic Acid] are 35.1% and 45.1%.
